Measured values from ChEMBL document CHEMBL2074109, “ATP-Dependent efflux of CPT-11 and SN-38 by the multidrug resistance protein (MRP) and its inhibition by PAK-104P” (Mol Pharmacol, 1999).

Target: Multidrug resistance-associated protein 1 (Homo sapiens, UniProt P33527)
Test: TP_TRANSPORTER: intracellular accumulation in KB-3-1 and MRP1-expressing KB-3-1 cells
Type: functional, cell-based, KB-3-1; KB/MRP
Conditions: kb/mrp

Chain of Multidrug resistance-associated protein 1 (P33527 whole entry): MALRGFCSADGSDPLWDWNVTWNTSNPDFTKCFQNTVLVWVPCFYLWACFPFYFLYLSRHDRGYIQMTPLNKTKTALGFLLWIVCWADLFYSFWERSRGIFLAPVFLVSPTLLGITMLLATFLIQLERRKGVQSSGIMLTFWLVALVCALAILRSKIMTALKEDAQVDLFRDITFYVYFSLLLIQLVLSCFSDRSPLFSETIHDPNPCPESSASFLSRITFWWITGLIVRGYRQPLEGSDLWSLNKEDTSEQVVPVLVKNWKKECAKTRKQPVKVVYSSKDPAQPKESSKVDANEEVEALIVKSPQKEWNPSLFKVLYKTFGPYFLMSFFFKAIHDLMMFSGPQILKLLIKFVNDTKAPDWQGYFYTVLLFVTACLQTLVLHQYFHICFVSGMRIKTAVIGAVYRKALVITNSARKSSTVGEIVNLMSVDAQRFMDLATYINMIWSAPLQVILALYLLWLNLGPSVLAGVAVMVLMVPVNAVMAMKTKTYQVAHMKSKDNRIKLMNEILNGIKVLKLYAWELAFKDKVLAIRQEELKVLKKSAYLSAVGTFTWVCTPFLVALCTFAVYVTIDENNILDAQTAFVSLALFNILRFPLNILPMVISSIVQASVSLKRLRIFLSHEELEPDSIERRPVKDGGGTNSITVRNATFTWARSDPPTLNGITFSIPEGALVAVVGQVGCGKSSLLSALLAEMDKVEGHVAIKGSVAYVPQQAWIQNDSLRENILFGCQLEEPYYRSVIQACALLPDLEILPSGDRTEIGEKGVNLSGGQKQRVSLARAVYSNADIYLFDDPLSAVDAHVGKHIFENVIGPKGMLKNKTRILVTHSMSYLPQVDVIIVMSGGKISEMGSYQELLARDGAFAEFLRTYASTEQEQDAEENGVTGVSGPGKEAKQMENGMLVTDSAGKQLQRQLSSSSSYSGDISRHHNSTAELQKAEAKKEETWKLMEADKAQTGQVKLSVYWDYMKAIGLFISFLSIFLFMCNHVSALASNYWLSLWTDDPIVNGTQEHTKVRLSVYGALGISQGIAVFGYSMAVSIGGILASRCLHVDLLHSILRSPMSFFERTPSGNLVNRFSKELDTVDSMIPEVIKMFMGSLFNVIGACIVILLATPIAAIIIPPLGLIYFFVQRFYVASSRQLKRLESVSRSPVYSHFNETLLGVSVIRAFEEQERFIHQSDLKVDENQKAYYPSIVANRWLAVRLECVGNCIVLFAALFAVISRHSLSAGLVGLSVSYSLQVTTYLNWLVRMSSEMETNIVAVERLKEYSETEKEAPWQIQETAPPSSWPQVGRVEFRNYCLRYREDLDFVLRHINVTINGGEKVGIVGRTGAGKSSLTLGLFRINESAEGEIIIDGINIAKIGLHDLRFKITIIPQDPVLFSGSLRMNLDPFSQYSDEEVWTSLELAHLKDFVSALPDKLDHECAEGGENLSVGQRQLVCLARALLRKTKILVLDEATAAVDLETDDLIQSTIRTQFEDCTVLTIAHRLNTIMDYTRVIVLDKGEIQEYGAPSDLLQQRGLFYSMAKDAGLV

| Compound | Activity |
| --- | --- |
| CCc1c2c(nc3ccc(O)cc13)-c1cc3c(c(=O)n1C2)COC(=O)[C@]3(O)CC [7-ETHYL-10-HYDROXYCAMPTOTHECIN] | substrate [+] |
| CCc1c2c(nc3ccc(OC(=O)N4CCC(N5CCCCC5)CC4)cc13)-c1cc3c(c(=O)n1C2)COC(=O)[C@]3(O)CC [IRINOTECAN] | substrate [+] |
